Entries after “also recorded” stand apart in the source; their conditions may differ.
Columns and labels:
tpk2^as = target: T1, tpk2^as (Saccharomyces cerevisiae, UniProt P06245, M147G); experiment: Inhibition of analog-sensitive PKA in Y133 tpk1Δtpk3Δtpk2^as during anaerobic growth on xylose; format: cell-based; details: 10 μM 1-NM-PP1 added after 17 hours
T1 construct: tpk2as repair templates were generated by PCR of the whole ORF of tpk2as; endogenous in cells; host or cells: S. cerevisiae Y133 tpk1Δtpk3Δtpk2^as; allele placed at the chromosomal TPK2 locus by CRISPR/Cas9 editing
T1 sequence (P06245 whole entry M147G): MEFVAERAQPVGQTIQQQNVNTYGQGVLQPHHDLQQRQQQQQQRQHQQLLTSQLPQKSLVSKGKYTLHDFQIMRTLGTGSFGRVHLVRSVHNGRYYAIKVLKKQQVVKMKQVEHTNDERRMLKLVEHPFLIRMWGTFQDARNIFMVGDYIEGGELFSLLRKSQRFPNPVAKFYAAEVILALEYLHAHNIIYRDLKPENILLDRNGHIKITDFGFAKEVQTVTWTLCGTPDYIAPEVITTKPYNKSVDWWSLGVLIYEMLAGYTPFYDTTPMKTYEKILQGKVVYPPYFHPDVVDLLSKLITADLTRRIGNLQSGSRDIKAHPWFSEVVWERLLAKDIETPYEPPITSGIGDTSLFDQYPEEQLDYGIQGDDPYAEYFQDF
Source text: Y133 tpk1Δtpk3Δtpk2^as was generated using CRISPR/Cas9-mediated genome editing. TPK1 and TPK3 were deleted in Y133 independently and verified by PCR. sgRNA sequence ([…]) that targeted the location within TPK2 to be replaced was cloned into the pXIPHOS vector using Not1 (GenBank accession MG897154), which contains the constitutive RNR2 promoter driving the Cas9 gene and NatMX resistance gene, using gapped plasmid repair using HiFi DNA Assembly Master Mix from NEB. tpk2as repair templates were generated by PCR of the whole ORF of tpk2as from a strain containing mutants of the TPK genes that are sensitive to the ATP-analogue inhibitor 1-NM-PP1 (TPK1 M164G, TPK2 M147G, TPK3 M165G). Purified repair templates were co-transformed at a 20-fold molar excess with the pXIPHOS-TPK2 sgRNA plasmid into Y133 tpk1Δtpk3Δ strain. Colonies resistant to nourseothricin were restreaked onto YPD two times to remove the plasmid (and were verified to now be sensitive to nourseothricin) and tpk2as presence was verified by sequencing. Y133 tpk1Δtpk3Δtpk2^as was grown in xylose anaerobically for 17 hours at which point 10 μM 1-NM-PP1 or DMSO control was added to the cultures.

PKA = PKA activity assay: in vitro phosphorylation of a PKA substrate by cell lysate; format: biochemical, Saccharomyces cerevisiae; details: 50 μM H-89
Description: PKA activity assay. Measurement of PKA activity was performed on lysed cells using the PKA Kinase Activity Assay Kit from ABCAM. Cultures were grown anaerobically in xylose for three doublings (to OD˜0.5), at which 10 mL of cells were collected by centrifugation for 3 minutes at 3000 rpm, in preparation for lysis. Supernatant was removed under anaerobic conditions and the cells were resuspended in 1 mL of SB buffer (1 M sorbitol, 20 mM Tris HCl, pH 7.4) with 300 units of zymolyase (Amsbio) and 10 μL of protease inhibitor cocktail IV (Millipore). Cells were incubated for 10 minutes at 30° C. anaerobically. Cells were collected by […] for 5 minutes at 350×g and washed 1× with SB buffer under anaerobic conditions. Cells were resuspended in 750 μL HLB buffer (10 mM Tris HCl, pH 7.4, 10 mM NaCl, 3 mM MgCl2, 0.3% (vol/vol) NP-40, 10% (vol/vol) glycerol) with 10 μL protease inhibitor cocktail IV and incubated on ice for 10 minutes, anaerobically. […] Lysis was verified using microscopy and total protein abundance was determined using a Bradford assay. […] The reaction was detected using a TECAN Infinite 200 Pro with a wavelength of 450 nm. […] Relative PKA activity was calculated by subtracting […] to remove background, followed by normalization to total protein abundance for each sample. […]

Y128 = experiment: Inhibition of growth using hydroxyurea during anaerobic growth on xylose; format: cell-based, Saccharomyces cerevisiae; details: 400 mM hydroxyurea added after 17 hours
Description: Inhibition of growth using hydroxyurea. Growth inhibition was performed using 400 mM hydroxyurea, added after 17 hours of anaerobic growth in xylose. Before and after growth inhibition, OD600 as well as sugar and ethanol concentrations were measured as above.

CC(C)(C)n1nc(Cc2cccc3ccccc23)c2c(N)ncnc21 [Strain 1-NM-PP1]
Effect on growth and fermentation during anaerobic xylose utilization (tpk2^as): rapidly inhibited growth and fermentation

O=S(=O)(NCCNC/C=C/c1ccc(Br)cc1)c1cccc2cnccc12 [Strain H-89]
Effect on phosphorylation of a PKA substrate in vitro (PKA; lysate from Y128 grown anaerobically on xylose): blocked | Effect on phosphorylation of a PKA target in vitro (PKA; lysate from Y184 bcy1Δ grown anaerobically on xylose): blocked

NC(=O)NO [hydroxyurea]
Effect on anaerobic xylose utilization (Y128): does not promote anaerobic xylose utilization; also recorded: halted xylose utilization | Effect on growth (OD600) (Y128): inhibits growth
